Experimental data taken from patent US8871751B2, “Compositions and methods relating to nuclear hormone and steroid hormone receptors including inhibitors of estrogen receptor alpha-mediated gene expression and inhibition of breast cancer” (The Board of Trustees of the University of Illinois, priority 2008, dated 2014).

How the values were obtained:
[1] = biological target: T1, ERα (Homo sapiens, UniProt P03372); assay: (ERE)3-luciferase reporter gene assay in T47D-KBluc cells; assay type: cell-based; parameters: Using a stably transfected breast cancer cell line that expresses endogenous ERα; endogenous in cells; host or cells: T47D-KBluc
T1 sequence (P03372 1-595): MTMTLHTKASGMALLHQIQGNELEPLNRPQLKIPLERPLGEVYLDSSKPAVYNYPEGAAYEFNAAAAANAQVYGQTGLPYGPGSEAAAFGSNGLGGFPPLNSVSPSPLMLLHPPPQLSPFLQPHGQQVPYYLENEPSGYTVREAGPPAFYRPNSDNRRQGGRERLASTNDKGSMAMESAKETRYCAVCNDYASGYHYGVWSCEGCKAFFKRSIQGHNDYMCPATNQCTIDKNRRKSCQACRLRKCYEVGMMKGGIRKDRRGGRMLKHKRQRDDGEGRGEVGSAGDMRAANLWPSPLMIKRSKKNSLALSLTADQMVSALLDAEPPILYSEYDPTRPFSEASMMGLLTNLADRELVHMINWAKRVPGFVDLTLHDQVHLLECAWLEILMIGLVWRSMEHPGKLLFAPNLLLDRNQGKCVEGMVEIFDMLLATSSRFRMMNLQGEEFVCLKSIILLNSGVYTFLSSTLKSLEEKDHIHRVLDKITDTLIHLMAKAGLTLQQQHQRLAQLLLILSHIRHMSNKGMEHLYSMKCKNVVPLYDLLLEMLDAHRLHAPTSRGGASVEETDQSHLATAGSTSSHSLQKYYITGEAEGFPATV
Protocol: The T47D-KBluc cells stably express an (ERE)3-luciferase reporter gene (38). […] Four days before E2 induction, the cells were switched to the above medium, with 10% 2× charcoal-dextran-treated calf serum instead of FBS. 200,000 cells/well were transferred to each well of a 24-well plate. After 24 h the indicated concentrations of the test compounds were added in DMSO and E2 was added to 20 pM. After 24 h cells were washed once in PBS, and 150 μl 1× Passive Lysis Buffer (Promega, Madison Wis.) was used to lyse the cells. Luciferase activity was determined using firefly luciferase reagents from Promega (Madison, Wis.).
Reporter Gene Assays. […] AR was assayed in stably transfected HeLa cells and GR was assayed in stably transfected T47D cells maintained as described above. Four days before each experiment the cells were switched to medium containing CD-treated serum as described above. The HeLaAR cells were plated at 100,000 cells/well and the T47D/A1-2 and T47D-KBluc cells were plated at 200,000 cells/well in 1 ml of their respective media in 24-well plates. After 24 hours the indicated concentrations of E2, dihydrotestosterone (DHT) or dexamethasone (Dex) and DMSO vehicle, with or without TPSF, were added to each well. After 24 hours, the cells were washed once in phosphate buffered saline and lysed using 100 μl of 1× Passive Lysis Buffer (Promega, Madison Wis.). Luciferase activity was determined using BrightGlo firefly luciferase reagent from Promega (Madison, Wis.).

[2] = biological target: T2, human ERα binding to flcERE (Homo sapiens, UniProt P03372); assay: FAMA: inhibition of ERα binding to flcERE; settings: FAMA, binding to HRE, 5 concentrations 0.5-10 μM, sequential method; read-out: IC50 ERα
T2 construct: Full-length FLAG-tagged human ERα was expressed and purified as described previously (27); FLAG; made in house
T2 sequence (P03372 1-595): T1 sequence (P03372 1-595)
Protocol: Prior to screening, the 10 mM library stocks were diluted to produce replica libraries in 384-well plates containing each small molecule at 0.25 mM (in DMSO). In our initial studies we were concerned that forming the flcERE-ERα complex first and then adding the candidate small molecule inhibitors would miss small molecules that bind at the interface. We therefore screened using the “sequential” method in which the candidate small molecules were first incubated with ERα and followed by addition of the flcERE. The assay for binding of ERα to the flcERE is a modification of our earlier assay (27). Assays were carried out at room temperature in black wall 384-well microplates (Greiner/Bio-One) in a total volume of 10 μl in buffer containing 20 mM Tris pH 7.5, 10% glycerol, 0.2 mM EDTA, 2 mM DTT, 100 mM KCl, 0.5 ng/μl poly dl:dC, […] bovine serum albumin and 100 nM 17β-estradiol (E2). For high throughput screening, a master mix without ERα and probe was prepared at 4° C. The master mix was divided into 2 parts. ERα was added to one part to 5 nM in the final assays. 7 μl of the ERα-containing mix was then dispensed into each well of a 384-well plate on ice. 100 nl of the compounds being tested was then added using a pin-transporter (V & P Scientific, Inc, CA) to a final concentration of 2.5 μM. The samples were mixed using the pin-transporter and sedimented by centrifugation for 2 min. at 4° C. and incubated on ice for 10 min. The flcERE probe was added to the other aliquot of the mix to 1 nM. 3 μl of the mix containing the flcERE probe was added to each well containing ERα and the test compound. The samples were mixed using the pin-transporter, the plates were briefly centrifuged and incubated at room temperature for 10 min. and fluorescence anisotropy (FA) was measured using a BMG PheraStar (BMG Labtech) microplate reader (module: 485 520) with excitation at 485λ and emission at 520λ. To identify small molecules that were highly fluorescent, or quench fluorescence, fluorescence intensity was also measured.
(§1) Dose response curves for selected compounds were carried out as described for the HTS screen except that each well contained the indicated concentration of test compound. PR assays were carried out in the same buffer used for ERα assays and contained 1 nM flcPRE and 11 nM PR-B and 100 nM progesterone. The buffer used for AR was similar but also contained 5 μM ZnCl, 5 mM NaF, 0.6 μM CHAPS and 100 nM dihydrotestosterone. AR assays contained 1 nM flcARE and 50 nM full-length wild-type AR.

[3] = biological target: T3, human PR-B binding to flPRE (Homo sapiens, UniProt P06401); assay: FAMA: inhibition of PR binding to flcPRE; settings: binding to HRE, 5 concentrations 0.5-10 μM, sequential method
T3 construct: FLAG; made in house
T3 sequence (P06401 1-933): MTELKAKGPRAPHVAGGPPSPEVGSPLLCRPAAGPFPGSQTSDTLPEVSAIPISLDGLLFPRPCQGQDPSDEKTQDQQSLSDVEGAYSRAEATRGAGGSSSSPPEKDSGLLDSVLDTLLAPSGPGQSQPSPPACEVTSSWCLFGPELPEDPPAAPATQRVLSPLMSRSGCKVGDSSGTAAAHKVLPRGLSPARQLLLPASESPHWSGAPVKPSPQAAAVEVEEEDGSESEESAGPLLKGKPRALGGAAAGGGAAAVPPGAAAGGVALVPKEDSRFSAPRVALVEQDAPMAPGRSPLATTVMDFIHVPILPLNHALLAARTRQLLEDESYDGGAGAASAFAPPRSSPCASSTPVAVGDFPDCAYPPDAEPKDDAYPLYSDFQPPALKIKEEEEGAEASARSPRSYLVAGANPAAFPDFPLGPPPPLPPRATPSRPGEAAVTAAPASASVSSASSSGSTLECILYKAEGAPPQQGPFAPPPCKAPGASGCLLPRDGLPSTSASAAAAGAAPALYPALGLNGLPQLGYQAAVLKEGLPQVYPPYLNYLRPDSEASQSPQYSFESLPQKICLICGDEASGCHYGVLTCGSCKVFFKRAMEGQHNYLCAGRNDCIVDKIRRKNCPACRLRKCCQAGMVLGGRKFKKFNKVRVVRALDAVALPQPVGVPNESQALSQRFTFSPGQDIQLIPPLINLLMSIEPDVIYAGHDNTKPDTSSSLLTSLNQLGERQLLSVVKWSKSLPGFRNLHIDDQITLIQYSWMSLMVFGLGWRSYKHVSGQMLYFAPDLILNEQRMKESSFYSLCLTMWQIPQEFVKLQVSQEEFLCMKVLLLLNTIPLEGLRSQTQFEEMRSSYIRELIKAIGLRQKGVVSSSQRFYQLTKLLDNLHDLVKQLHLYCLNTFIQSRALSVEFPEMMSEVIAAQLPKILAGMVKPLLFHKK
Protocol: as §1
(§2) Specificity was evaluated in dose-response studies by quantitative FAMA using purified full-length human PR binding to a fluorescein-labeled progesterone/glucocorticoid response element (flPRE) and full-length human androgen receptor (AR) binding to a fluorescein-labeled androgen response element (flARE).

[4] = biological target: T4, human androgen receptor (AR) binding to flARE (Homo sapiens, UniProt P10275); assay: FAMA: inhibition of AR binding to flcARE; settings: binding to HRE, 5 concentrations 0.5-10 μM, sequential method
T4 construct: AR assays contained 1 nM flcARE and 50 nM full-length wild-type AR; FLAG; made in house
T4 sequence (P10275 1-920): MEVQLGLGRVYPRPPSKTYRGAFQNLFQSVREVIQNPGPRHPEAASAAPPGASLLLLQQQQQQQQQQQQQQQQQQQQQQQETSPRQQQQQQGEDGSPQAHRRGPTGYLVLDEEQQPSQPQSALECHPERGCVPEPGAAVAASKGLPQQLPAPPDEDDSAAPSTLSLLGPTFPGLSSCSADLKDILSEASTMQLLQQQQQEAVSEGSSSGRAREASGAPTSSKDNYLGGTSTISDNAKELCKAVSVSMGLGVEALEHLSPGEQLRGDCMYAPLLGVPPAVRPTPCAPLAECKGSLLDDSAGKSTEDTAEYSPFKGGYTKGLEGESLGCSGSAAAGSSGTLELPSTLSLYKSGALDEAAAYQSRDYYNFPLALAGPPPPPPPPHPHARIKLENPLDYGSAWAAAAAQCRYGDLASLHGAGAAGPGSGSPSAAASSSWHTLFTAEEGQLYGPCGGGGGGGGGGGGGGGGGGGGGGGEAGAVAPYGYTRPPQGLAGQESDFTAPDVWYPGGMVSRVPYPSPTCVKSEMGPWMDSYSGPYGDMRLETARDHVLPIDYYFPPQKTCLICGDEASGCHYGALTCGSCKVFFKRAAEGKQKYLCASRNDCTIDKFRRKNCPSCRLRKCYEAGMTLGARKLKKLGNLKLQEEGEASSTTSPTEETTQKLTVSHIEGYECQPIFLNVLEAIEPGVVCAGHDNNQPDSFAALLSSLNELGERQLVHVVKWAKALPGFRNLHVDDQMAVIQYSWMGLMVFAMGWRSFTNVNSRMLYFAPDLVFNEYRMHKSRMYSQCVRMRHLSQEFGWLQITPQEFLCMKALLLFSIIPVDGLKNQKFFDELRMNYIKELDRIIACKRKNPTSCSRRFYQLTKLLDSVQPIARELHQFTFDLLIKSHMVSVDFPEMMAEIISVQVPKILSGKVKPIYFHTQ
Protocol: as §1, §2

Compound	potency as ERα inhibitor relative to TPSF (less potent) [1]	IC50 ([1]; T47D (ERE)3-Luc cells, 24 h, FIG. 13, E2 concentration for 99676 not stated, read-out: IC50 for inhibition of ERα-mediated gene expression)	IC50 [2]	IC50 [3]	IC50 [4]
Cn1c(=S)c2[nH]c(SCCCc3ccccc3)nc2n(C)c1=O [Compound 99676]	~13 fold	9 µM			
CC1=NNC(=S)NCCCN2CCN(CCCNC(=S)NN=C(C)C=NNC(=S)NCCCN3CCN(CCCNC(=S)NN=C1)CC3)CC2 [Compound 91767]			8 µM	> 10 µM	> 10 µM
c1ccc(-c2oc(-c3ccccc3)c(CN3CCCCC3)c2CN2CCCCC2)cc1 [Compound 7473]			9 µM	> 10 µM	> 10 µM
Cc1ccccc1NCC(C)O (centres unmarked) [Compound 7484]			9.5 µM	> 10 µM	> 10 µM
CC1CCCCN1.CC1CCCCN1.[Cl][Cu][Cl] (centres unmarked) [Compound 1826]			7 µM	6 µM	8 µM
NNC(=O)OCc1ccccc1 [Compound 2287]			2.1 µM	2.7 µM	1.7 µM
CN(C)c1ncnc2c1cnn2-c1ccc(Cl)cc1 [Compound 1445]			0.6 µM	1.2 µM	0.7 µM
O=C(OC1C2COC(O2)C(OC(=O)c2ccccc2)C1OC(=O)c1ccccc1)c1ccccc1 (centres unmarked) [Compound 1387]			4.5 µM	6.5 µM	4.8 µM
O=C1C(CO)C(CO)C(CO)C1CO (centres unmarked) [Compound 9064]			> 10 µM	> 10 µM	> 10 µM
O=C(O)c1cccc(N=Nc2c(S(=O)(=O)O)ccc3c2C(=O)c2ccccc2C3=O)c1O [Compound 125908]			3.8 µM	> 10 µM	> 10 µM
CCCCCCC1(c2cccnc2)NC(=O)NC1=O (centres unmarked) [Compound 9503]			2.6 µM	> 10 µM	> 10 µM
CCCCCCCCCCCCCCCC[N+](C)(C)CCN(Cc1ccc(OC)cc1)c1ncccn1 [Compound 5648]			6.5 µM	7.3 µM	4.5 µM
Nc1c(S(=O)(=O)O)cc(Nc2ccc(S(=O)(=O)O)c(Nc3nc(Cl)nc(Cl)n3)c2)c2c1C(=O)c1ccccc1C2=O [Compound 9545]			0.7 µM	3.8 µM	3 µM
